Laboratory results reported in US10039283B2, “Substituted pyrazolyl-nicotin(thio)amide derivatives and their use as fungicides” (BAYER CROPSCIENCE AKTIENGESELLSCHAFT, priority 2014, dated 2018).

Assay: Log P by HPLC on reversed phase, method [a], acidic range (0.1% formic acid)
Type: physicochemical
Details: LC-UV, 0.1% formic acid in water and acetonitrile

Row | LogP | SMILES
1 | 3.64^[a] | O=C(Nc1cnn(-c2cc(Cl)cc(Cl)c2)c1C(F)(F)F)c1cccnc1C(F)F [Example 92]
2 | 3.27^[a] | O=C(Nc1cnn(-c2ccc(Cl)cc2Cl)c1C(F)(F)F)c1cccnc1C(F)F [Example 93]
3 | 3.11^[a] | O=C(Nc1cnn(-c2cccc(Cl)c2Cl)c1C(F)(F)F)c1cccnc1C(F)F [Example 94]
4 | 3.15^[a] | O=C(Nc1cnn(-c2cc(Cl)ccc2Cl)c1C(F)(F)F)c1cccnc1C(F)F [Example 95]
5 | 3.51^[a] | O=C(Nc1cnn(-c2ccc(Cl)c(Cl)c2)c1C(F)(F)F)c1cccnc1C(F)F [Example 96]
6 | 2.71^[a] | O=C(Nc1cnn(Cc2ccccc2)c1C(F)(F)F)c1cccnc1C(F)F [Example 97]
7 | 1.82^[a] | COc1c(NC(=O)c2cccnc2C(F)F)cnn1-c1ccccc1 [Example 98]
8 | 2.34^[a] | CCc1c(NC(=O)c2cccnc2C(F)F)cnn1-c1ccc(C)cc1 [Example 99]
9 | 2.34^[a] | CCc1c(NC(=O)c2cccnc2C(F)F)cnn1-c1cccc(C)c1 [Example 100]
10 | 3.13^[a] | Cc1ccc(-n2ncc(NC(=O)c3cc(C)cnc3C(F)F)c2C(F)(F)F)cc1 [Example 101]
11 | 2.62^[a] | CC(C)c1c(NC(=O)c2cccnc2C(F)F)cnn1-c1ccc(Cl)cc1 [Example 102]
12 | 2.60^[a] | CC(C)c1c(NC(=O)c2cccnc2C(F)F)cnn1-c1cccc(Cl)c1 [Example 103]
13 | 2.18^[a] | CCc1c(NC(=O)c2cccnc2C(F)F)cnn1-c1ccccc1C [Example 104]
14 | 2.48^[a] | CCc1c(NC(=O)c2cccnc2C(F)F)cnn1-c1ccc(Cl)cc1 [Example 105]
15 | 2.37^[a] | Cc1ccccc1-n1ncc(NC(=O)c2cccnc2C(F)F)c1C(C)C [Example 106]
16 | 2.48^[a] | CCc1c(NC(=O)c2cccnc2C(F)F)cnn1-c1cccc(Cl)c1 [Example 107]
17 | 2.48^[a] | Cc1ccc(-n2ncc(NC(=O)c3cccnc3C(F)F)c2C(C)C)cc1 [Example 108]
18 | 2.35^[a] | CC(C)c1c(NC(=O)c2cccnc2C(F)F)cnn1-c1ccccc1Cl [Example 109]
19 | 2.17^[a] | CCc1c(NC(=O)c2cccnc2C(F)F)cnn1-c1ccccc1Cl [Example 110]
20 | 2.08^[a] | Cc1c(NC(=O)c2cccnc2C(F)F)cnn1-c1ccccc1C(F)(F)F [Example 111]
21 | 2.10^[a] | Cc1ccc(-n2ncc(NC(=O)c3cccnc3C(F)F)c2C)cc1 [Example 112]

Row | LogP | SMILES
22 | 2.48^[a] | Cc1c(NC(=O)c2cccnc2C(F)F)cnn1-c1cccc(C(F)(F)F)c1 [Example 113]
23 | 2.53^[a] | Cc1c(NC(=O)c2cccnc2C(F)F)cnn1-c1ccc(C(F)(F)F)cc1 [Example 114]
24 | 1.93^[a] | Cc1ccccc1-n1ncc(NC(=O)c2cccnc2C(F)F)c1C [Example 115]
25 | 2.50^[a] | Cc1cccc(-n2ncc(NC(=O)c3cccnc3C(F)F)c2C(C)C)c1 [Example 116]
26 | 2.69^[a] | CCc1c(NC(=O)c2cccnc2C(F)F)cnn1-c1cccc(C(F)(F)F)c1 [Example 117]
27 | 2.76^[a] | CCc1c(NC(=O)c2cccnc2C(F)F)cnn1-c1ccc(C(F)(F)F)cc1 [Example 118]
28 | 2.01^[a] | CCc1c(NC(=O)c2cccnc2C(F)F)cnn1-c1ccccc1 [Example 119]
29 | 2.15^[a] | CC(C)c1c(NC(=O)c2cccnc2C(F)F)cnn1-c1ccccc1 [Example 120]
30 | 2.28^[a] | CCCc1c(NC(=O)c2cccnc2C(F)F)cnn1-c1ccccc1 [Example 121]
31 | 2.00^[a] | CCCCn1ncc(NC(=O)c2cccnc2C(F)F)c1CC [Example 122]
32 | 2.18^[a] | CCCCn1ncc(NC(=O)c2cccnc2C(F)F)c1C(C)C [Example 123]
33 | 2.32^[a] | CCc1c(NC(=O)c2cccnc2C(F)F)cnn1CCC(C)C [Example 124]
34 | 2.53^[a] | CC(C)CCn1ncc(NC(=O)c2cccnc2C(F)F)c1C(C)C [Example 125]
35 | 1.63^[a] | CCC(C)n1ncc(NC(=O)c2cccnc2C(F)F)c1C (stereo not shown) [Example 126]
36 | 2.20^[a] | CCc1c(NC(=O)c2cccnc2C(F)F)cnn1C(CC)CC [Example 127]
37 | 2.92^[a] | O=C(Nc1cnn(-c2ccc(F)cc2)c1-c1cccc(Cl)c1)c1cccnc1C(F)F [Example 128]
38 | 2.70^[a] | O=C(Nc1cnn(-c2ccccc2C(F)(F)F)c1-c1ccccc1)c1cccnc1C(F)F [Example 129]
39 | 2.80^[a] | O=C(Nc1cnn(-c2ccccc2C(F)(F)F)c1-c1ccc(F)cc1)c1cccnc1C(F)F [Example 130]
40 | 2.80^[a] | O=C(Nc1cnn(-c2ccccc2C(F)(F)F)c1-c1cccc(F)c1)c1cccnc1C(F)F [Example 131]
41 | 3.04^[a] | O=C(Nc1cnn(-c2ccccc2C(F)(F)F)c1-c1ccc(Cl)cc1)c1cccnc1C(F)F [Example 132]
42 | 2.59^[a] | Cc1cnc(C(F)F)c(C(=O)Nc2cnn(-c3ccc(Br)cc3)c2C)c1 [Example 133]

Row | LogP | SMILES
43 | 2.34^[a] | Cc1c(NC(=O)c2cccnc2C(F)F)cnn1-c1ccc(Br)cc1 [Example 134]
44 | 2.07^[a] | O=C(Nc1cnn(-c2ccccc2)c1Br)c1cccnc1C(F)F [Example 135]
45 | 3.76^[a] | COc1cnc(C(F)F)c(C(=O)Nc2cnn(-c3ccc(Cl)c(Cl)c3)c2C(F)(F)F)c1 [Example 136]
46 | 2.07^[a] | O=C(Nc1cnn(-c2ccccc2)c1Cl)c1cccnc1C(F)F [Example 137]
47 | 3.25^[a] | Cc1cnc(C(F)F)c(C(=O)Nc2cnn(-c3cccc(Cl)c3)c2C(F)(F)F)c1 [Example 138]
48 | 3.39^[a] | Cc1cnc(C(F)F)c(C(=O)Nc2cnn(-c3cccc(C(F)(F)F)c3)c2C(F)(F)F)c1 [Example 139]
49 | 2.77^[a] | Cc1cnc(C(F)F)c(C(=O)Nc2cnn(-c3ccccc3F)c2C(F)(F)F)c1 [Example 140]
50 | 2.86^[a] | Cc1cnc(C(F)F)c(C(=O)Nc2cnn(-c3ccc(F)cc3)c2C(F)(F)F)c1 [Example 141]
51 | 3.78^[a] | Cc1cnc(C(F)F)c(C(=O)Nc2cnn(-c3ccc(C(C)C)cc3)c2C(F)(F)F)c1 [Example 142]
52 | 2.28^[a] | N#Cc1c(NC(=O)c2cccnc2C(F)F)cnn1-c1ccccc1 [Example 143]
53 | 3.80^[a] | O=C(Nc1cnn(-c2cccc(Cl)c2Cl)c1C(F)(F)F)c1ccc(Br)nc1C(F)F [Example 144]
54 | 3.73^[a] | O=C(Nc1cnn(-c2ccc(Cl)cc2)c1C(F)(F)F)c1ccc(Br)nc1C(F)F [Example 145]
55 | 2.51^[a] | O=C(Nc1cnn(-c2ccccc2F)c1-c1cccc(F)c1)c1cccnc1C(F)F [Example 146]
56 | 2.51^[a] | O=C(Nc1cnn(-c2ccccc2F)c1-c1ccc(F)cc1)c1cccnc1C(F)F [Example 147]
57 | 2.39^[a] | O=C(Nc1cnn(-c2ccccc2F)c1-c1ccccc1)c1cccnc1C(F)F [Example 148]
58 | 2.73^[a] | O=C(Nc1cnn(-c2ccccc2F)c1-c1ccc(Cl)cc1)c1cccnc1C(F)F [Example 149]
59 | 2.67^[a] | O=C(Nc1cnn(-c2ccc(Br)cc2)c1Br)c1cccnc1C(F)F [Example 150]
60 | 3.47^[a] | O=C(Nc1cnn(-c2ccc(Br)cc2)c1Cl)c1cccnc1C(F)F [Example 151]
61 | 2.40^[a] | COc1c(NC(=O)c2cccnc2C(F)F)cnn1-c1ccc(Br)cc1 [Example 152]
62 | 2.54^[a] | O=C(Nc1cnn(-c2cccc(Cl)c2)c1Br)c1cccnc1C(F)F [Example 153]
63 | 2.96^[a] | Cc1cccc(-n2ncc(NC(=O)c3cc(C)cnc3C(F)F)c2C(F)(F)F)c1 [Example 154]

Row | LogP | SMILES
64 | 3.62^[a] | O=C(Nc1cnn(-c2cccc(Cl)c2)c1C(F)(F)F)c1ccc(Cl)nc1C(F)F [Example 155]
65 | 3.33^[a] | Cc1cccc(-n2ncc(NC(=O)c3ccc(Cl)nc3C(F)F)c2C(F)(F)F)c1 [Example 156]
66 | 3.48^[a] | Cc1ccc(-n2ncc(NC(=O)c3ccc(Cl)nc3C(F)F)c2C(F)(F)F)cc1 [Example 157]
67 | 3.15^[a] | O=C(Nc1cnn(-c2ccccc2F)c1C(F)(F)F)c1ccc(Cl)nc1C(F)F [Example 158]
68 | 4.13^[a] | CC(C)c1ccc(-n2ncc(NC(=O)c3ccc(Cl)nc3C(F)F)c2C(F)(F)F)cc1 [Example 159]
69 | 3.53^[a] | O=C(Nc1cnn(-c2c(Cl)cccc2Cl)c1C(F)(F)F)c1ccc(Cl)nc1C(F)F [Example 160]
70 | 4.23^[a] | O=C(Nc1cnn(-c2cc(Cl)cc(Cl)c2)c1C(F)(F)F)c1ccc(Cl)nc1C(F)F [Example 161]
71 | 3.85^[a] | O=C(Nc1cnn(-c2ccc(Cl)cc2Cl)c1C(F)(F)F)c1ccc(Cl)nc1C(F)F [Example 162]
72 | 3.71^[a] | O=C(Nc1cnn(-c2cccc(Cl)c2Cl)c1C(F)(F)F)c1ccc(Cl)nc1C(F)F [Example 163]
73 | 2.90^[a] | N#Cc1c(NC(=O)c2ccc(Cl)nc2C(F)F)cnn1-c1ccccc1 [Example 164]
74 | 3.37^[a] | COc1cnc(C(F)F)c(C(=O)Nc2cnn(-c3cccc(Cl)c3Cl)c2C(F)(F)F)c1 [Example 165]
75 | 2.51^[a] | Cc1cnc(C(F)F)c(C(=O)Nc2cnn(-c3ccccc3)c2C#N)c1 [Example 166]
76 | 3.35^[a] | Cc1cnc(C(F)F)c(C(=O)Nc2cnn(-c3cccc(Cl)c3Cl)c2C(F)(F)F)c1 [Example 167]
77 | 3.53^[a] | COc1cnc(C(F)F)c(C(=O)Nc2cnn(-c3ccc(Cl)cc3Cl)c2C(F)(F)F)c1 [Example 168]
78 | 3.29^[a] | COc1cnc(C(F)F)c(C(=O)Nc2cnn(-c3ccc(Cl)cc3)c2C(F)(F)F)c1 [Example 169]
79 | 2.95^[a] | Cc1cnc(C(F)F)c(C(=O)Nc2cnn(Cc3ccccc3)c2C(F)(F)F)c1 [Example 170]
80 | 3.16^[a] | Cc1cnc(C(F)F)c(C(=O)Nc2cnn(-c3c(Cl)cccc3Cl)c2C(F)(F)F)c1 [Example 171]
81 | 3.96^[a] | O=C(Nc1cnn(-c2ccc(Cl)cc2Cl)c1C(F)(F)F)c1ccc(Br)nc1C(F)F [Example 172]
82 | 3.33^[a] | O=C(Nc1cnn(Cc2ccccc2)c1C(F)(F)F)c1ccc(Cl)nc1C(F)F [Example 173]
